Data taken from patent US11360104B2, “Microbial-based biosensors” (TRUSTEES OF BOSTON UNIVERSITY, priority 2017, dated 2022).
Read-outs that look alike come from different tables or passages of the source.

Tests used:
PinR = PinR (Nocardioides simplex (Pimelobacter simplex), UniProt A0A0A1DUF2); assay: Cross-reactivity test with estradiol, 1:4:6 QD:TF:oligo sensor; assay type: biochemical; details: FIG. 44E
From the text: FIGS. 44A-44E show a schematic of the biosensor and emission plots. […] These two graphs show the difference between our sensor (blue) and negative control (orange). The lowest number of acceptor molecules with the largest difference between the signal and noise (difference between blue and orange) is the concentration ratio that we want to work with moving forward. The sensor tested moving forward comprised a 1:4:6 ratio of QD:TF:oligo-dye. Fda=Donor emission intensity in the presence of acceptor; Fd=Donor emission intensity in the absence of acceptor; Relative Donor Emission=Fda/Fd; FRET efficiency=1−Fda/Fd; Fa=Acceptor emission intensity in the presence of the donor; [QD]=50 nM; Oligo-Cy5:QD=0-48. […] When the TF is bound to the QD and the oligo is bound to the TF, which is more likely in the absence of the analyte (red line), the donor emission intensity is decreased and the acceptor emission intensity is increased (energy transfer from the QD to the dye on the oligo). The presence of the analyte decreases the affinity of the TF for the oligo, so binding is less likely; as a result, the donor emission intensity is increased and the acceptor emission intensity decreased. […] This same sensor was tested with estradiol (estrogen) as well to test for cross-reactivity. […]

Pimelobacter simplex = assay: Solvent and steroid exposure growth curves; details: P. simplex, starting OD 0.005, constant solvent
From the text: (§1) In order to identify steroid binding Transcription Factors, a whole transcriptome RNA sequencing (RNA-Seq) screen was developed (FIG. 7). The growth of Pimelobacter simplex bacteria was profiled with respect to the starting inoculation density, solvent toxicity, and the addition of steroids (FIG. 16). […] P. simplex bacteria were screened against the steroid solvents ethanol (EtOH) and dimethyl sulfoxide (DMSO). […] Steroid growth curves were similarly performed using a starting OD of 0.005 and constant solvent dosing with titrations of steroids. […] P. simplex bacteria were grown in the presence of 700 μM testosterone, 21.88 μM progesterone, 87.50 μM estrone, 21.88 μM 17β-estradiol, 21.88 μM hydrocortisone, or 175.00 μM aldosterone concentrations were selected for comparison.
In order to properly determine the doubling time of the strain, growth curves were performed. All growth curves were done in 100 μL per well volumes in 96 well flat clear bottom black polystyrene TC-treated microplates which were individually wrapped with a lid and sterile (Corning #3603). Measurements were done by an Infinite M200 Pro (TECAN) spectrophotometer at the temperature suited for P. simplex. Readings were performed over 96 cycles of 15 minutes each at 600 nm absorbance with 25 flashes in a 3×3 (XY-Line) type reads per well. In between reads there was orbital shaking at 150 rpm frequency for a total of 10 minutes. In order to characterize the growth alone, a ½ serial dilution of 9 concentrations from 0.5-0.0020 OD600 nm were prepared in the respective media. Then each concentration was measured as previously described using a microplate reader (TECAN) and normalized against a media background control in technical triplicate. Afterward, an appropriate starting concentration of cells was chosen with a substantially long lag-phase, linear log phase, and a plateau of stationary-phase.
Once an appropriate starting cell concentration was chosen, a secondary growth curve was performed to test the toxicity levels of the solvents used to dissolve steroids of interest. Since the steroids used are heavily hydrophobic, they often need to be dissolved in organic solvents such as DMSO or ethanol which are toxic to bacteria at high concentrations. P. simplex was incubated under microplate reader conditions previously mentioned at a starting OD determined by the first growth curve with DMSO, ethanol, or H2O at ½ serial dilutions for a total of eight concentrations (50-0.39%) tested in technical triplicate. Two controls were included per solvent; a positive control without solvent and a media control which allowed for appropriate normalization. Solvent exposure growth curves allowed for choosing the maximum amount of solvent concentration that strains would sustain while maintaining relative viability in order to determine a range of steroid concentrations which could be used.
A tertiary growth curve was performed to test the toxicity levels of steroid specific to P. simplex. The strain was incubated under microplate reader conditions previously mentioned at a starting OD determined by the first growth curve and the highest solvent concentration corresponding to the steroid of interest with steroid at ½ serial dilutions for a total of seven concentrations tested in singlet. Testosterone, progesterone, 17β-estradiol, hydrocortisone, and aldosterone were all dissolved in ethanol while estrone was dissolved in DMSO. Three controls were included for each steroid; a positive control with the highest tolerable solvent concentration (%), a positive control with media, and a media control which allowed for normalization. Steroid exposure growth curves allowed for choosing the maximum amount of steroid concentration that P. simplex would sustain while maintaining relative viability.

[1] = test system: steroid responsive genome island (SRGI); assay: Whole transcriptome RNA-Seq of steroid treated P. simplex; assay type: cell-based, Pimelobacter simplex; details: P. simplex exposed to steroid vs solvent control, Log2 fold change
From the text: as §1
Using accession gene tags, genes were annotated for steroid relevant enzymes or transcription factors. […] Allosteric TF binding sequences are often palindromes and typically located near the start of its gene location in an intergenic space. With such a design, the allosteric TF can regulate itself or the open reading frame (ORF) near it in response to its effector molecule. […] Once identified, the TFs were cloned and recombinantly expressed for thorough characterization.
Cells were grown in 6 mL volumes of media at the OD, solvent, and steroid concentrations found from the growth curves in 14 mL polypropylene round-bottom tubes (Corning #352059) in technical duplicate. The same controls as in the steroid exposure growth curve were used for setting up RNA extraction samples. The cells were incubated at their corresponding temperature with continuous orbital shaking at 150 rpm until the end of lag-phase, mid-log phase, or stationary phase from the start of inoculation. Afterward, samples were removed and a 1:1 ratio of RNAprotect Bacteria Reagent (Qiagen #76506) was added followed by spinning down at 4° C. for 10 minutes at 4000 g. Supernatant was removed and the pellet re-suspended in 300 μL of RNAprotect and transferred into 2.0 mL Safe-Lock Tubes (Eppendorf #3101). The samples were then spun down once again at 4° C. for 10 minutes at 10000 g. Once the supernatant has been removed the samples were placed on ice and ready for RNA extraction. RNA extraction was done by Qiacube (Qiagen #9001292) set to the RNeasy Protect Bacteria Mini Kit protocol of bacterial cell pellet with enzymatic lysis. Tube A was prepared as described except with the addition of 150 mg/mL lysozyme (Sigma-Aldrich #L6876) and 20 mg/mL proteinase K (Roche #03115879001) all diluted in 1xTE buffer. RNA samples were subsequently quantified using Qubit RNA HS Assay Kit (Thermo Fisher Scientific #Q32852) and analyzed using a RNA 6000 Pico Kit (Agilent 5067-1513) in a 2100 Bioanalyzer (Agilent G2939A). RNA samples were either immediately used for RNA-Seq library preparation or stored long-term at −80° C.
RNA-Seq libraries were then produced from these samples using a slightly modified ScriptSeq v2 RNA-Seq Library Preparation Kit (Illumina 455A/22124) ensuring use of unique index primers through ScriptSeq Index PCR Primers (Sets 1-4) 48 rxns/set (Illumina #SSIP1234).

[2] = test system: TetR variant TetRc, tdTomato fusion (tetR-tdTomato); assay: FRET sensor 1 (tdTomato-TetRc + Cy5-DNA) titrated with aTc; aTc-induced TF-DNA unbinding; assay type: biochemical
From the text: (§2) The TetO cognate sequence comprises a 19 bp binding region. The 19 bp cognate sequence was flanked by 4-5 bp on each side to ensure binding, resulting in a 28 bp DNA oligo. One of the strands was labeled with the FRET acceptor Cy5 on both the 5′ and 3′ ends. A second 28 bp sequence with no affinity for TetR was similarly labeled to act as the negative control (Table 4).
(§3) Each sensor consists of Cy5-modified DNA acting as the FRET acceptor with either a fluorescent protein-transcription factor (FP-TF) fusion protein (expressed in E. coli) or quantum dot-transcription factor (QD-TF) conjugate as the donor.
(§4) A TF to DNA ratio was chosen for each sensor (1:3 for Sensor 1, 1:4.5 for Sensors 2 and 3) and kept constant for subsequent experiments testing sensor sensitivity to aTc.
(§5) To compare the three sensors, the sensor outputs were fit to a modified Hill equation written as:
(§6) [formula] where S0 is the intensity of the sensor signal with no analyte present, S1 is the intensity of the sensor signal at saturating analyte concentration, c is the analyte concentration, EC50 is the concentration at which there is 50% signal (aka the effective concentration, or EC50), and h is the Hill coefficient, which indicates cooperative binding. For visual comparison, the sensor outputs were normalized and plotted together (FIGS. 4A and B).

[3] = test system: TetR variant TetRd (TetR-6His, on QD2); assay: FRET sensor 3 (QD2-TetRd + Cy5-DNA) titrated with aTc; aTc-induced TF-DNA unbinding; assay type: biochemical
From the text: as §2, §3, §4, §5, §6
(§7) For Sensors 2 and 3, QDs and tetR-6His were mixed at a 1:4 ratio with a final QD concentration of 50 nM for self-assembly of the tetR-6His to the surface of the QDs^21.

[4] = test system: TetR variant TetRc (TetR-6His, on QD1); assay: FRET sensor 2 (QD1-TetRc + Cy5-DNA) titrated with aTc; aTc-induced TF-DNA unbinding; assay type: biochemical
From the text: as §2, §3, §4, §5, §6, §7

Sequence of PinR (A0A0A1DUF2 entry or part of it): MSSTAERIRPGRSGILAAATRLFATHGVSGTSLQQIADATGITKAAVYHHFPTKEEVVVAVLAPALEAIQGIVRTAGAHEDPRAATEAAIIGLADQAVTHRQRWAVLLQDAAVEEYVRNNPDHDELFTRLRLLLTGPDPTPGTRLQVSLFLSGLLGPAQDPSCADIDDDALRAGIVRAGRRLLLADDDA

| SMILES | impact of concentration on the sensor binding/unbinding (Fa/Fd) (PinR) | highest steroid concentration exhibiting normal growth profile (Pimelobacter simplex) [µM] | upregulation of genes inside the SRGI [1] | h (Hill coefficient) ([2]; aTc, sensor 1) | EC50 ([2]; aTc, sensor 1, tdTomato:TF:DNA 1:1:3, Table 6 fit, read-out: EC50) [nM] | EC50 ([2]; sensor 1, legend of FIG. 4, read-out: c50 (analyte concentration that yields 50% signal, EC50)) [nM] | h (Hill coefficient) ([3]; aTc, sensor 3) | EC50 ([3]; aTc, sensor 3, QD:TF:DNA 1:4:18, Table 6 fit, read-out: EC50) [nM] | EC50 ([3]; sensor 3, legend of FIG. 4, read-out: c50 (analyte concentration that yields 50% signal, EC50)) [nM] | h (Hill coefficient) ([4]; aTc, sensor 2) | EC50 ([4]; aTc, sensor 2, QD:TF:DNA 1:4:18, Table 6 fit, read-out: EC50) [nM] | EC50 ([4]; sensor 2, legend of FIG. 4, read-out: c50 (analyte concentration that yields 50% signal, EC50)) [nM] |
| --- | --- | --- | --- | --- | --- | --- | --- | --- | --- | --- | --- | --- |
| C[C@]12CC[C@@H]3c4ccc(O)cc4CC[C@H]3[C@@H]1CC[C@@H]2O [17β-estradiol, 17β-Estradiol] | no impact | 21.88 | not |  |  |  |  |  |  |  |  |  |
| Cc1c2c(c(O)c3c(O)cccc13)C(=O)[C@]1(O)C(=O)C(C(N)=O)=C(O)[C@@H](N(C)C)[C@@H]1C2 [aTc, anhydrotetracycline] |  |  |  | 1.57 ± 0.0802 | 218 ± 9.18 | 205 | 2.14 ± 0.185 | 133 ± 6.15 | 117 | 2.37 ± 0.191 | 699 ± 26.4 | 682 |
